This is an account of results in patent US11529324B2, “Use of Kv11.1 channel inhibitors for treatment of pulmonary hypertension” (Georgetown University, priority 2019, dated 2022).

Data set [1] has as its system PAH-induced SD rats. Put plainly: Lower doses of dofetilide in SU5416/hypoxia PAH-induced and healthy SD rats, H&E lung histology (Example 6). Type of data set: in vivo, rat. The protocol:
(§1) Male SD and Fischer rats were purchased from Charles River Laboratories International, Inc., (Wilmington, Mass., USA). To induce PAH, rats were subcutaneously injected with 20 mg/kg body weight SU5416 (inhibitor of vascular endothelial growth factor (VEGF) receptor Flk/1-KDR; MedChemExpress, Monmouth Junction, N.J., USA) and maintained in hypoxia^28-30. For hypoxia, animals were placed in a chamber (30″ w×20″ d×20″ h) regulated by an OxyCycler Oxygen Profile Controller (Model A84XOV; BioSpherix, Redfield, N.Y., USA) set to maintain 10% O2 with an influx of N2 gas, located in the animal care facility at the Georgetown University Medical Center. […] Animals were fed normal rat chow.
In a second experiment to determine the effects of dofetilide, SD rats are divided into 4 groups that are treated with (1) DMSO, (2) dofetilide, (3) DMSO+SU5416/Hypoxia, and (4) dofetilide+SU5416/Hypoxia, respectively (n=4 for each group). Dofetilide (1000 μg/kg body weight) is dissolved in DMSO and injected intraperitoneally before the injection of SU5416. For histological examination, lung tissues are fixed in 10% formalin and embedded in paraffin.
In a third experiment to determine the effects of dofetilide, SD rats are divided into 4 groups that are treated with (1) DMSO, (2) dofetilide, (3) DMSO+SU5416/Hypoxia, and (4) dofetilide+SU5416/Hypoxia, respectively (n=4 for each group). Dofetilide (100 μg/kg body weight) is dissolved in DMSO and injected intraperitoneally before the injection of SU5416. For histological examination, lung tissues are fixed in 10% formalin and embedded in paraffin.
In a fourth experiment to determine the effects of dofetilide, SD rats are divided into 4 groups that are treated with (1) DMSO, (2) dofetilide, (3) DMSO+SU5416/Hypoxia, and (4) dofetilide+SU5416/Hypoxia, respectively (n=4 for each group). Dofetilide (10 μg/kg body weight) is dissolved in DMSO and injected intraperitoneally before the injection of SU5416. For histological examination, lung tissues are fixed in 10% formalin and embedded in paraffin.
To examine further if pharmacological inhibition of Kv11.1 channels would affect PAH progression, healthy and PAH-induced SD rats are treated with Kv11.1 channel-specific blocker dofetilide using lower doses (1 mg/kg, 0.1 mg/kg, 0.01 mg/kg, or 0.001 mg/kg) than was used in Example 5. Lung tissues from four groups of SD rats (four rats in each group) are examined with H&E staining. […] PAH-induced rats in Group (3) have increased intimal endothelial cell proliferation, increased SPAMWT, and reduced pulmonary arterial lumen diameter compared to control rats.

Data set [2] has as its system PAH-induced SD rats. The experiment in a line: Dofetilide treatment of SU5416/hypoxia PAH-induced and healthy SD rats, H&E lung histology and morphometric analysis (Example 5). Type of data set: in vivo, rat. As to the method: as §1
In a first experiment to determine the effects of a Kv11.1 inhibitor (dofetilide), SD rats were divided into 4 groups that were treated with (1) DMSO, (2) dofetilide, (3) DMSO+SU5416/Hypoxia, and (4) dofetilide+SU5416/Hypoxia, respectively (n=4 for each group). Dofetilide (10 mg/kg body weight) was dissolved in DMSO and injected intraperitoneally before the injection of SU5416. For histological examination, lung tissues were fixed in 10% formalin and embedded in paraffin. The Georgetown University Animal Care and Use Committee approved all animal experiments, and the investigation conformed to the National Institutes of Health Guide for the Care and Use of Laboratory Animals.
Paraffin-embedded tissues were cut and mounted on glass slides. Tissue sections were subjected to hematoxylin and eosin (H&E) stain and immunohistochemistry using anti-smooth muscle actin (anti-SMA) antibody (Abcam, Cambridge, UK) and Kv11.1 antibody (Alomone Labs, Jerusalem, Israel).
Lung slides were analyzed for pulmonary artery wall thickness. 30 vessels were analyzed per animal in each group, and four values of external and internal diameters for thickness were measured for each vessel. The wall thickness was calculated as difference of external and internal diameters by using Fiji software.
Means±SEM were calculated and then comparisons between two groups were analyzed using a two-tailed Student's t test, while comparisons between three or more groups were analyzed using ANOVA with a Student-Newman-Keuls post-hoc test. P<0.05 was considered to be significant.
To determine if pharmacological inhibition of Kv11.1 channels would affect PAH progression, healthy and PAH-induced SD rats were treated with Kv11.1 channel-specific blocker dofetilide. Lung tissues from four groups of SD rats (four rats in each group) were examined with H&E staining. […] PAH-induced rats in group (3) had increased intimal endothelial cell proliferation, increased SPAMWT, and reduced pulmonary arterial lumen diameter compared to control rats (FIGS. 6A and 6B).

[3] abbreviates: PAH-induced SD rats, dofetilide lower doses (1, 0.1, 0.01 or 0.001 mg/kg) i.p., Group (4) compared with Group (3).
Where [4] appears, read: PAH-induced (SU5416/hypoxia) SD rats, dofetilide 10 mg/kg i.p. before SU5416, group (4) compared with PAH-induced group (3).

As for `CN(CCOc1ccc(NS(C)(=O)=O)cc1)CCc1ccc(NS(C)(=O)=O)cc1` [dofetilide], the “pulmonary arterial lumen diameter” value in the data set with PAH-induced SD rats [1] (setting [3]) and with PAH-induced SD rats [2] (setting [4]) was “increased” throughout. The “small pulmonary arterial media wall thickness (SPAMWT)” value with PAH-induced SD rats [1] (setting [3]) and in the data set on PAH-induced SD rats [2] (setting [4]) was “reduced” throughout. For the same molecule, the “PAH-induced changes in SPAMWT” value in the data set on PAH-induced SD rats [1] (dofetilide lower doses (1, 0.1, 0.01 or 0.001 mg/kg), SPAMWT of Group (4) statistically similar to control Group (2)) is reported as “completely eliminates”; in the data set on PAH-induced SD rats [2] (dofetilide 10 mg/kg i.p., SPAMWT of PAH-induced dofetilide-treated group (4) statistically similar to control group (2)), “completely eliminated”. The “small pulmonary arterial media wall thickness (SPAMWT) in control rats” value in the data set on PAH-induced SD rats [1] (healthy SD rats, dofetilide lower doses Group (2) versus DMSO Group (1)) is listed as “no statistical differences”; in the data set on PAH-induced SD rats [2] (healthy SD rats, dofetilide 10 mg/kg i.p. group (2) versus DMSO group (1), data not shown) it was “no statistical differences”.
